According to article PMC10178848, “Modulating fast skeletal muscle contraction protects skeletal muscle in animal models of Duchenne muscular dystrophy” (The Journal of Clinical Investigation, 2023):

System: GRMD plasma proteins
Assay type: in vivo, dog
Conditions: Post-Treatment to GRMD baseline; Increased in GRMD

## O=c1ccc(-c2cnc(OCC(F)(F)F)nc2)nn1Cc1cncc(F)c1 [EDG-5506]
  Change from GRMD Baseline (fraction): Tyrosine-protein phosphatase non-receptor type 11 (PTPN11): -0.1671 fraction
  Change from GRMD Baseline (fraction): UMP-CMP kinase (CMPK1): 0.3595 fraction
  Change from GRMD Baseline (fraction): Ubiquitin carboxyl-terminal hydrolase 25 (USP25): 0.0097 fraction
  Change from GRMD Baseline (fraction): Ubiquitin carboxyl-terminal hydrolase isozyme L1 (UCHL1): 0.0043 fraction
  Change from GRMD Baseline (fraction): Ubiquitin-fold modifier 1 (UFM1): -0.1676 fraction
  Change from GRMD Baseline (fraction): Vascular cell adhesion protein 1 (VCAM1): -0.0398 fraction
  Change from GRMD Baseline (fraction): Vitamin K-dependent protein C (PROC): 0.0209 fraction
  Change from GRMD Baseline (fraction): Vitronectin (VTN): -0.1254 fraction
  Change from GRMD Baseline (fraction): cAMP-dependent protein kinase catalytic subunit alpha (PRKACA): -0.3909 fraction
  Change from GRMD Baseline (fraction): dCTP pyrophosphatase 1 (DCTPP1): -0.286 fraction
  Chitotriosidase-1 (CHIT1): Change from GRMD Baseline (fraction): 0.0322 fraction
  Chorionic somatomammotropin hormone (CSH1 CSH2): Change from GRMD Baseline (fraction): -0.0339 fraction
  Chromobox protein homolog 5 (CBX5): Change from GRMD Baseline (fraction): 0.2228 fraction
  Coagulation Factor X (F10): Change from GRMD Baseline (fraction): 0.1794 fraction
  Coagulation factor IX (F9): Change from GRMD Baseline (fraction): 0.0608 fraction
  Complement component 1 Q subcomponent-binding protein, mitochondrial (C1QBP): Change from GRMD Baseline (fraction): 0.0901 fraction
  Connective tissue growth factor (CTGF): Change from GRMD Baseline (fraction): -0.0093 fraction
  Cyclin-dependent kinase 1:G2/mitotic-specific cyclin-B1 complex (CDC2 CCNB1): Change from GRMD Baseline (fraction): 0.0208 fraction
  Cyclin-dependent kinase 5:Cyclin-dependent kinase 5 activator 1 complex (CDK5 CDK5R1): Change from GRMD Baseline (fraction): 0.0687 fraction
  Cytokine receptor-like factor 1:Cardiotrophin-like cytokine factor 1 Complex (CRLF1 CLCF1): Change from GRMD Baseline (fraction): 0.0138 fraction
  Dual 3',5'-cyclic-AMP and -GMP phosphodiesterase 11A (PDE11A): Change from GRMD Baseline (fraction): 0.0321 fraction
  Ectodysplasin-A, secreted form (EDA): Change from GRMD Baseline (fraction): 0.0092 fraction
  Endothelial cell-selective adhesion molecule (ESAM): Change from GRMD Baseline (fraction): -0.0069 fraction
  Endothelial monocyte-activating polypeptide 2 (AIMP1): Change from GRMD Baseline (fraction): -0.0021 fraction
  Extracellular superoxide dismutase [Cu-Zn] (SOD3): Change from GRMD Baseline (fraction): 0.0677 fraction
  Ficolin-2 (FCN2): Change from GRMD Baseline (fraction): 0.0082 fraction
  Fms-related tyrosine kinase 3 ligand (FLT3LG): Change from GRMD Baseline (fraction): 0.0399 fraction
  Galactoside 3(4)-L-fucosyltransferase (FUT3): Change from GRMD Baseline (fraction): 0.1128 fraction
  Galectin-10 (CLC): Change from GRMD Baseline (fraction): 0.0216 fraction
  Glial fibrillary acidic protein (GFAP): Change from GRMD Baseline (fraction): -0.0254 fraction
  Glycylpeptide N-tetradecanoyltransferase 1 (NMT1): Change from GRMD Baseline (fraction): 0.0839 fraction
  Group 10 secretory phospholipase A2 (PLA2G10): Change from GRMD Baseline (fraction): 0.0518 fraction
  Growth hormone receptor (GHR): Change from GRMD Baseline (fraction): 0.0479 fraction
  Growth-regulated alpha protein (CXCL1): Change from GRMD Baseline (fraction): -0.0445 fraction
  Growth/differentiation factor 15 (GDF15): Change from GRMD Baseline (fraction): -0.0019 fraction
  Hepatocyte growth factor (HGF): Change from GRMD Baseline (fraction): 0.0007 fraction
  Hepcidin (HAMP): Change from GRMD Baseline (fraction): -0.0103 fraction
  Immunoglobulin M (IGHM IGJ IGK@ IGL@): Change from GRMD Baseline (fraction): 0.0023 fraction
  Importin subunit alpha-1 (KPNA2): Change from GRMD Baseline (fraction): -0.1696 fraction
  Induced myeloid leukemia cell differentiation protein Mcl-1 (MCL1): Change from GRMD Baseline (fraction): -0.1236 fraction
  Inorganic pyrophosphatase (PPA1): Change from GRMD Baseline (fraction): -0.0163 fraction
  Insulin-like growth factor-binding protein 7 (IGFBP7): Change from GRMD Baseline (fraction): 0.064 fraction
  Integrin alpha-IIb: beta-3 complex (ITGA2B ITGB3): Change from GRMD Baseline (fraction): 0.0053 fraction
  Interleukin-4 (IL4): Change from GRMD Baseline (fraction): -0.0251 fraction
  Interleukin-6 receptor subunit beta (IL6ST): Change from GRMD Baseline (fraction): 0.06 fraction
  Interleukin-8 (CXCL8): Change from GRMD Baseline (fraction): -0.0291 fraction
  Interleukin-10 receptor subunit beta (IL10RB): Change from GRMD Baseline (fraction): -0.0324 fraction
  Interleukin-17 receptor C (IL17RC): Change from GRMD Baseline (fraction): -0.0159 fraction
  Interleukin-18 receptor accessory protein (IL18RAP): Change from GRMD Baseline (fraction): -0.0292 fraction
  Interleukin-27 (IL27 EBI3): Change from GRMD Baseline (fraction): -0.0149 fraction
  Interleukin-36 beta (IL36B): Change from GRMD Baseline (fraction): 0.0098 fraction
  Killer cell immunoglobulin-like receptor 3DS1 (KIR3DS1): Change from GRMD Baseline (fraction): 0.1583 fraction
  Killer cell lectin-like receptor subfamily F member 1 (KLRF1): Change from GRMD Baseline (fraction): 0.2014 fraction
  Lamin-B1 (LMNB1): Change from GRMD Baseline (fraction): -0.0238 fraction
  Laminin (LAMA1 LAMB1 LAMC1): Change from GRMD Baseline (fraction): 0.0548 fraction
  Low-density lipoprotein receptor-related protein 1B (LRP1B): Change from GRMD Baseline (fraction): -0.0345 fraction
  Macrophage-stimulating protein receptor (MST1R): Change from GRMD Baseline (fraction): 0.0197 fraction
  Matrilin-3 (MATN3): Change from GRMD Baseline (fraction): -0.0333 fraction
  Matrilysin (MMP7): Change from GRMD Baseline (fraction): -0.0041 fraction
  N-terminal pro-BNP (NPPB): Change from GRMD Baseline (fraction): -0.0202 fraction
